Values joined by “and” are separate entries in the source; they are usually repeats but may differ in a detail not shown here. Equal values may be shown once. Numbers after ± are expanded uncertainties.
Conditions: Liquid, Calculated from knudsen effusion weight loss

[Ag+].[Br-] [silver bromide]
vapor or sublimation pressure (829.9 K): 0.000109 ± 4.4e-05 kPa [middle of 4 runs] | vapor or sublimation pressure (849.9 K): 0.000184 ± 7.4e-05 kPa [middle of 4 runs] | vapor or sublimation pressure (869.9 K): 0.000316 ± 0.00013 kPa [middle of 4 runs] | vapor or sublimation pressure (889.9 K): 0.00057 ± 0.00023 kPa and 0.000464 ± 0.00019 kPa and 0.000529 ± 0.00021 kPa | vapor or sublimation pressure (890 K): 0.000602 ± 0.00024 kPa | vapor or sublimation pressure (909.9 K): 0.000855 ± 0.00034 kPa and 0.000958 ± 0.00038 kPa and 0.000842 ± 0.00034 kPa | vapor or sublimation pressure (910 K): 0.001143 ± 0.00047 kPa | vapor or sublimation pressure (929.9 K): 0.001712 ± 0.0007 kPa [middle of 4 runs]

Reference: the NIST ThermoML archive (doi:10.1016/j.tca.2018.10.027)
